In publication PMC2868066 (Biochemistry, 2010):
≈ marks a conversion by molar mass, not a printed value. Peptide text beside a SMILES is read from it.

Columns and labels:
S. aureus ATCC 29213 = type: cell-based; details: ATCC 29213, 18 h
E. coli K12 = type: cell-based; details: K12, 18 h
S. aureus / E. coli = details: cited from earlier work

Row | Molecule | MIC (S. aureus ATCC 29213) | MIC (E. coli K12) | MIC S. aureus/MIC E. coli (S. aureus / E. coli)
1 | CC[C@H](C)[C@H](NC(=O)CN)C(=O)NCC(=O)N[C@@H](CCCCN)C(=O)N[C@@H](Cc1ccccc1)C(=O)N[C@@H](CC(C)C)C(=O)N[C@@H](CCCCN)C(=O)N[C@@H](CCCCN)C(=O)N[C@@H](C)C(=O)N[C@@H](CCCCN)C(=O)N[C@@H](CCCCN)C(=O)N[C@@H](Cc1ccccc1)C(=O)NCC(=O)N[C@@H](CCCCN)C(=O)N[C@@H](C)C(=O)N[C@@H](Cc1ccccc1)C(=O)N[C@H](C(=O)N[C@@H](CCCCN)C(=O)N[C@H](C(=O)N[C@@H](CC(C)C)C(=O)N[C@@H](CCCCN)C(=O)N[C@@H](CCCCN)C(N)=O)[C@@H](C)CC)C(C)C [MSI-78] (H-GIGKFLKKAKKFGKAFVKILKK-NH2) | 12.5 µg/mL (≈ 5.05 µM) | – | –
2 | CC[C@H](C)[C@H](NC(=O)[C@H](CCCCN)NC(=O)CNC(=O)[C@H](C)NC(=O)[C@@H](NC(=O)[C@H](CCCCN)NC(=O)[C@H](C)NC(=O)[C@@H](NC(=O)[C@H](CCCCN)NC(=O)CNC(=O)[C@H](C)NC(=O)[C@@H](NC(=O)[C@H](CCCCN)NC(=O)[C@H](C)NC(=O)[C@@H](NC(=O)[C@H](CCCCN)NC(=O)CNC(=O)[C@H](C)NC(=O)[C@@H](NC(=O)[C@@H](N)CCCCN)[C@@H](C)CC)[C@@H](C)CC)[C@@H](C)CC)[C@@H](C)CC)[C@@H](C)CC)C(=O)N[C@@H](C)C(N)=O [MSI-103] (H-KIAGKIAKIAGKIAKIAGKIA-NH2) | 25 µg/mL (≈ 12.1 µM) | 1.6 µg/mL (≈ 0.776 µM) | –
3 | Cateslytin | – | – | >3
